Read-outs that look alike come from different tables or passages of the source.
What was measured:
[1] = Solubility by nephelometry (EURL ECVAM); assay type: physicochemical
Excerpt: In addition to the visual inspection performed by the validation laboratories as described in the SOP, EURL ECVAM introduced nephelometry for systematic solubility determination of the 13 validation set chemicals. Nephelometry uses a laser beam and the principle of Tyndall effect light scatter to detect turbidity due to insolubility. The nephelometer method used formazin as reference item (1, 5, 10 and 20 nephelometric turbidity units (NTU)) to calculate the relative turbidity (RTU) of the validation set of chemicals. To the naked eye, 20 NTU is perceptible, while the nephelometer was sensitive to 5 NTU, with 1 NTU equivalent to background (solvent/medium blank).

CYP = CYP isoforms induced; ref Abadie et al. (2009), Richert et al. (2010), Preissner et al. (2010), Hoffmann et al. (2014); cited from earlier work
CYP3A4 [2] = assay: CYP3A4 enzyme induction assay in cryopreserved primary human hepatocytes (PHH); conditions: for Assigned classification CYP3A4: PHH
CYP2B6 [3] = conditions: cited from earlier work
CYP1A2 = CYP1A2 enzyme induction assay in cryopreserved primary human hepatocytes (PHH); assay type: in vitro ADME; conditions: for Prediction in vivo inducer: Cmax/F2 >0.5 criterion; for Assigned classification CYP1A2: PHH;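 on Assigned classification CYP1A2: code 1 means positive inducer and 0 means non-inducer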
[4] = cited from earlier work
CYP2B6 [5] = assay: CYP2B6 enzyme induction assay in cryopreserved primary human hepatocytes (PHH); assay type: in vitro ADME; conditions: for Assigned classification CYP2B6: PHH;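 on Assigned classification CYP2B6: code 1 means positive inducer and 0 means non-inducer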
CYP3A4 [6] = conditions: cited from earlier work
[7] = Solubility by visual inspection (DMSO stock solution and assay medium); assay type: physicochemical; conditions: assay medium
Protocol: The SOPs relied on visual inspection for solubility observation. […] The absence of precipitation in the medium was checked pre- and post-incubation (24 hours) by centrifugation of the sample and observation of any precipitation (pellet residue).

[8] = human in vivo, CYP named without remark = induced, ref references in the cell, Washington University database, Hoffmann et al. (2014), Pelkonen et al. (2008), Hukkanen et al. (2012)

Q: For `O=C1Nc2ccc(Cl)cc2[C@@](C#CC2CC2)(C(F)(F)F)O1` [Efavirenz], which “nephelometry finding in assay medium” value ([1]; 40 μg/ml, the two media) is on record?
A: insoluble suspensions

Q: And the HepaRG medium stability ([1]; ECVAM nephelometry, HepaRG medium, ^2 = solubility limit)?
A: 20 µg/mL

Q: What about the PHH medium stability ([1]; ECVAM nephelometry, ^2 = solubility limit) of the same molecule?
A: 40^2 μg/mL

Q: What about the PHH medium stability ([1]; ECVAM nephelometry, ^2 = solubility limit, listed as efavirenz) of the same molecule?
A: 40 µg/mL

Q: And the “CYP induction in vitro (human hepatocytes)” value (CYP)?
A: CYP2B6, CYP3A4

Q: What about the F2 (CYP3A4 [2]; CYP3A4, PHH) of the same molecule?
A: 14.1 µM

Q: And the Induction in vitro (CYP3A4 [2]; CYP3A4, PHH)?
A: Yes

Q: What about the “Prediction in vivo inducer” value (CYP3A4 [2]; CYP3A4, PHH) of the same molecule?
A: Yes

Q: What about the “Assigned classification CYP3A4” value (CYP3A4 [2]; Lab 1, batch 0 6 A) of the same molecule?
A: 1

Q: What about the “Assigned classification CYP3A4” value (CYP3A4 [2]; Lab 1, batch 4 0 8) of the same molecule?
A: 1

Q: And the “Assigned classification CYP3A4” value (CYP3A4 [2]; Lab 1, batch 8 0 8)?
A: 1

Q: What about the “Assigned classification CYP3A4” value (CYP3A4 [2]; Lab 2, batch 0 6 A) of the same molecule?
A: 1

Q: And the “Assigned classification CYP3A4” value (CYP3A4 [2]; Lab 2, batch 4 0 8)?
A: 1

Q: And the “Assigned classification CYP3A4” value (CYP3A4 [2]; Lab 2, batch 8 0 8)?
A: 1

Q: And the “Assigned classification CYP3A4” value (CYP3A4 [2]; Lab 3, batch 0 6 A)?
A: 1

Q: What about the “Assigned classification CYP3A4” value (CYP3A4 [2]; Lab 3, batch 4 0 8) of the same molecule?
A: 1

Q: And the “Assigned classification CYP3A4” value (CYP3A4 [2]; Lab 3, batch 8 0 8)?
A: 1

Q: What about the Induction in vivo (CYP2B6 [3]; CYP2B6, human in vivo reference classification) of the same molecule?
A: Yes

Q: And the “CYP induction in vivo literature reference: CYP2B6” value (CYP2B6 [3]; [8])?
A: CYP2B6

Q: What about the “Prediction in vivo inducer” value (CYP1A2; CYP1A2, PHH) of the same molecule?
A: No

Q: And the “Prediction in vivo inducer” value (CYP1A2; CYP1A2, PHH, listed as efavirenz)?
A: non-inducers

Q: And the Induction in vitro (CYP1A2; CYP1A2, PHH, positive in one donor in each of the three laboratories)?
A: No

Q: What about the “Assigned classification CYP1A2” value (CYP1A2; Lab 1, batch 0 6 A) of the same molecule?
A: 0

Q: What about the “Assigned classification CYP1A2” value (CYP1A2; Lab 1, batch 4 0 8) of the same molecule?
A: 0

Q: And the “Assigned classification CYP1A2” value (CYP1A2; Lab 1, batch 8 0 8)?
A: 0

Q: What about the “Assigned classification CYP1A2” value (CYP1A2; Lab 2, batch 0 6 A) of the same molecule?
A: 0

Q: What about the “Assigned classification CYP1A2” value (CYP1A2; Lab 2, batch 4 0 8) of the same molecule?
A: 0

Q: What about the “Assigned classification CYP1A2” value (CYP1A2; Lab 2, batch 8 0 8) of the same molecule?
A: 0

Q: And the “Assigned classification CYP1A2” value (CYP1A2; Lab 3, batch 0 6 A)?
A: 0

Q: And the “Assigned classification CYP1A2” value (CYP1A2; Lab 3, batch 4 0 8)?
A: 0

Q: And the “Assigned classification CYP1A2” value (CYP1A2; Lab 3, batch 8 0 8)?
A: 0

Q: What about the Cmax ([4]; human in vivo plasma concentration, normal dose) of the same molecule?
A: 9.1 to 12.6 µM

Q: What about the Cmax ([4]; human in vivo, normal dose (Table 10)) of the same molecule?
A: 9.1 to 12.6 µM

Q: And the F2 (CYP2B6 [5]; CYP2B6, PHH)?
A: 4.69 µM

Q: And the Induction in vitro (CYP2B6 [5]; CYP2B6, PHH)?
A: Yes

Q: And the “Prediction in vivo inducer” value (CYP2B6 [5]; CYP2B6, PHH)?
A: Yes

Q: And the “Prediction in vivo inducer” value (CYP2B6 [5]; CYP2B6, PHH, Cmax/F2 >0.5 criterion)?
A: positive

Q: And the “Assigned classification CYP2B6” value (CYP2B6 [5]; Lab 1, batch 0 6 A)?
A: 1

Q: What about the “Assigned classification CYP2B6” value (CYP2B6 [5]; Lab 1, batch 4 0 8) of the same molecule?
A: 1

Q: And the “Assigned classification CYP2B6” value (CYP2B6 [5]; Lab 1, batch 8 0 8)?
A: 1

Q: What about the “Assigned classification CYP2B6” value (CYP2B6 [5]; Lab 2, batch 0 6 A) of the same molecule?
A: 1

Q: What about the “Assigned classification CYP2B6” value (CYP2B6 [5]; Lab 2, batch 4 0 8) of the same molecule?
A: 1

Q: And the “Assigned classification CYP2B6” value (CYP2B6 [5]; Lab 2, batch 8 0 8)?
A: 0

Q: And the “Assigned classification CYP2B6” value (CYP2B6 [5]; Lab 3, batch 0 6 A)?
A: 1

Q: And the “Assigned classification CYP2B6” value (CYP2B6 [5]; Lab 3, batch 4 0 8)?
A: 0

Q: And the “Assigned classification CYP2B6” value (CYP2B6 [5]; Lab 3, batch 8 0 8)?
A: 0

Q: And the Induction in vivo (CYP3A4 [6]; CYP3A4, human in vivo reference classification (Table 12))?
A: Yes

Q: And the “CYP induction in vivo literature reference: CYP3A4” value (CYP3A4 [6]; [8])?
A: CYP3A4

Q: And the HepaRG medium stability ([7]; Lab 1, visual observation)?
A: 20 µg/mL

Q: What about the HepaRG medium stability ([7]; Lab 2, visual observation) of the same molecule?
A: 40 µg/mL

Q: And the HepaRG medium stability ([7]; Lab 3, visual observation)?
A: 40 µg/mL

Q: And the PHH medium stability ([7]; Lab 4, visual observation)?
A: 40 µg/mL

Q: What about the PHH medium stability ([7]; Lab 5, visual observation) of the same molecule?
A: 40 µg/mL

Q: And the PHH medium stability ([7]; Lab 6, visual observation)?
A: 40 µg/mL

From article PMC6718736, “Validation of in vitro methods for human cytochrome P450 enzyme induction: Outcome of a multi-laboratory study” (Toxicology in Vitro, 2019)
